The text below walks through data of patent US20110257139A1, “TREATMENT OF DIARRHOEA” (ROYAL COLLEGE OF SURGEONS IN IRELAND, priority 2008, published 2011).

Bounds are passed on as bounds.

Data set [1] concerns T84 cells. The data set can be described thus: Cl^− secretory (Isc) responses of T84 cell monolayers in Ussing chambers. Type of data set: cell-based. To be noted: for Isc (Cl^− secretory) response to carbachol (CCh) / Isc (Cl^− secretory) response to forskolin: T84 monolayers pretreated with 1 μM for 24 hrs; for Isc (Cl^− secretory) response to carbachol (CCh): carbachol 100 μM; for Isc (Cl^− secretory) response to forskolin: forskolin 10 μM. Here is the method:
Measurements of chloride secretion: Cultured T84 epithelial cells were employed as a model of the colonic epithelium. T84 cells were grown as monolayers on filter supports. When grown in this way T84 cells retain many of the characteristics of native intestinal epithelium and are widely considered as being among the best reductionist models for analysing intestinal epithelial secretory responses. […] After this time they were washed of GW 4064, mounted in Ussing chambers, and voltage-clamped to zero potential difference. Under these conditions, transepithelial ion transport can be measured as changes in short-circuit current (Isc) and such changes in Isc across T84 cells have been established as being wholly due to Cl^− ion secretion. After mounting the cells in Ussing chambers we measured Cl^− secretory responses to both the calcium- and cAMP-dependent agonists, carbachol (100 μM) and forskolin (10 μM), respectively.

The test system of data set [2] is T84 cells. Kind of data set: Transepithelial conductance of T84 monolayers as a measure of cell viability. To be noted: various concentrations for 24 hrs. Type of data set: cell-based. How it is done:
Monolayers were then mounted in Ussing chambers and transepithelial conductance measurements were made as a measure of cell viability (n=4-13). Only at concentrations>10 μM did GW 4064 exert toxic effects on T84 cells. FIG. 5.

A further data set has as its system Na^+/K^+ ATPase pump. Kind of data set: Abundance (western blotting) and surface expression (biotinylation) of Na^+/K^+ ATPase pump in T84 cells. Type of data set: cell-based. To be noted: 5 μM, 24 hrs. How it is done:
Western Blotting: T84 monolayers were washed with ice-cold PBS and lysed (1% Nonidet P-40, 150 mmol/L NaCl, 50 mmol/L Tris Base, 1×Complete mini EDTA free protease inhibitor tablet, 0.1 mg/l mL PMSF, 1 mmol/L Na3VO4). Lysates were collected, centrifuged at 15,294×g for 10 minutes at 4° C., the pellet discarded, and the supernatant sonicated with 3×10 second pulses in order to disrupt membrane proteins. Samples were normalized for protein content and 2× gel loading buffer (50 mM Tris HCl, 100 mM DTT, 40% glycerol and 4% SDS) was added. Samples were then heated at 95° C. for 5 min, separated by sodium dodecyl sulphate polyacrylamide gel electrophoresis and transferred to PVDF membranes. Membranes were pre-blocked in 5% blocking buffer (Marvel in PBS) for 60 minutes at room temperature followed by incubation with primary antibody in 5% blocking buffer overnight at 4° C. […] After further washing (×4) in TBST, immunoreactive proteins were detected by enhanced chemiluminescence (Amersham Biosciences, UK).
Cell Surface Biotinylation: Following treatment T84 cell monolayers were washed ×3 in ice-cold PBS and freshly prepared biotinylation buffer (1 mg/mL sulfo-NHS-biotin (Pierce) in PBS) was added basolaterally. […] Na^+/K^+-ATPase □ subunit was detected by western blot analysis as described above.
Background: A western blot detects proteins with antibodies after separation by electrophoresis.

Data set [3] deals with T84 cells. Kind of data set: Cellular ATP levels in T84 cells (ENLITEN ATP Assay). As to conditions: 5 μM, 24 hrs. Type of data set: cell-based. How it is done: Cells were then lysed with hypotonic lysis buffer (2 mM EDTA, 100 mM Trizma base, brought to pH 7.75 with acetic acid) and frozen at −80° C. The lysate was later assayed for ATP content using the ENLITEN® ATP Assay System (Promega, Madison, Wis.).

The subject of a further data set is K^+ channel conductances. Kind of data set: Basolateral K^+ conductance in T84 monolayers (Ussing chambers). Type of data set: cell-based. As to conditions: 5 μM, 24 hrs. How it is done:
To measure basolateral K^+ conductance T84 cell monolayers in Ussing chambers were apically permeabilized with amphotericin B (50 μmol/L). A K^+ gradient (123.2-5.2 mmol/L) was created across the basolateral membrane by addition of a high K^+ (123.2 mmol/L) Ringers solution, in which NaCl is substituted with K^+-gluconate, to the apical reservoir. Ouabain (100 μmol/L) was added basolaterally to inhibit Na^+/K^+-ATPase pump activity. Under these conditions changes in Isc are wholly reflective of changes in basolateral K^+ conductance (IK^+).

For another data set, the system named is mouse colon. The data set can be described thus: Ex vivo Isc measurements in muscle-stripped colon after intraperitoneal dosing of mice. As to conditions: 100 mg/kg intraperitoneally, 24 hrs. How it is done: Animal Studies: Male C57BL6 mice were bred and maintained in an environmentally controlled animal facility at Beaumont Hospital. Experiments were performed on 6-9 week old animals and were in compliance with Irish Department of Health and Children regulations and approved by the Beaumont Hospital Ethics Committee. […] The distal colon was removed, stripped of underlying smooth muscle, and mounted in Ussing chambers (window area=0.3 cm^2). Results were normalized and expressed as ΔIsc (μA/cm^2).
Administration of a potent and selective FXR agonist inhibits Cl^− secretory responses in mouse colon. FIG. 10.

Turning to GW4064, the “CCh-induced Cl^− secretory responses” value with T84 cells [1] (GW4064 5 μM, 24 hrs) is recorded as “inhibited”. Also, in the data set on T84 cells [1], the “Isc (Cl^− secretory) response to carbachol (CCh)” value is “significantly attenuates” and the “Isc (Cl^− secretory) response to forskolin” value is given as “significantly attenuates”. Moreover, in the data set on T84 cells [1] (listed as GW 4064), the “Isc (Cl^− secretory) response to carbachol (CCh)” value is on record as “significantly reduce” and the “Isc (Cl^− secretory) response to forskolin” value is recorded as “significantly reduce”. Also, the “Time-dependence of attenuation of Cl^− secretory responses to CCh” value with T84 cells [1] (pretreated 5 μM for various periods of time, CCh 100 μM) was “attenuates Cl^− secretion in a time-dependent fashion”. Besides, in the data set with T84 cells [1] (pretreated 0.1-10 μM for 24 hrs), the “Concentration-dependence of antisecretory actions (Cl^− secretory responses to CCh and forskolin)” value is given as “concentration-dependent”. Besides, the “Concentration exerting toxic effects on T84 cells (transepithelial conductance)” value in the data set with T84 cells [2] is above 10 µM. In the data set on Na^+/K^+ ATPase pump, the “Cellular abundance of the catalytic α subunit of Na^+/K^+ ATPase (western blotting)” value was “does not alter” and the “Surface expression of Na^+/K^+ ATPase pump (biotinylation)” value is “does not alter”. For the same substance, the “Cellular ATP levels” value in the data set with T84 cells [3] is given as “does not alter”. For the same substance, in the data set on K^+ channel conductances, the “K^+ channel conductances” value is listed as “did not significantly alter”. In addition, in the data set on mouse colon, the “Ex vivo Isc response of colon to CCh” value was “significantly attenuated” and the “Ex vivo Isc response of colon to forskolin” value was “significantly attenuated”.
